# Reference: patent US9073821B2, “Hydroxamic acid derivative” (priority 2010, dated 2015)
# Target: Pseudomonas aeruginosa LpxC enzyme (Pseudomonas aeruginosa (strain ATCC 15692 / DSM 22644 / CIP 104116 / JCM 14847 / LMG 12228 / 1C / PRS 101 / PAO1), UniProt P47205)
# Assay: biochemical
# Type: biochemical
# Conditions: class symbols A/B/C by IC50; Table 3; read-out: Enzyme inhibitory activity (inhibitory activity on Pseudomonas aeruginosa LpxC enzyme)
row,Structure (SMILES),IC50
1,"CNC(=O)[C@@](C)(C(=O)NO)N(C)C(=O)c1ccc(C#Cc2coc(CN3CCCOCC3)c2)cc1 [Compound 583, (2S)-N-hydroxy-N′,2-dimethyl-2-{methyl[(4-{[5-(1,4-oxazepan-4-ylmethyl)furan-3-yl]ethynyl}phenyl)carbonyl]amino}propanediamide]",< 0.01 µM
2,"CNC(=O)C(C(=O)NO)N(C)C(=O)c1ccc(C#CC#Cc2cnn(C)c2)cc1 (stereo not shown) [Compound 511, N-hydroxy-N′-methyl-2-[methyl({4-[4-(1-methyl-1H-pyrazol-4-yl)buta-1,3-diyn-1-yl]phenyl}carbonyl)amino]propanediamide]",< 0.01 µM
3,"CCOC1CN(Cc2ccc(C#Cc3ccc(C(=O)N(C)C(C(=O)NC)C(=O)NO)cc3)cc2)C1 (stereo not shown) [Compound 535, 2-[{[4-({4-[(3-ethoxyazetidin-1-yl)methyl]phenyl}ethynyl)phenyl]carbonyl}(methyl)amino]-N-hydroxy-N′-methylpropanediamide]",< 0.01 µM

# Other lines, results leading:
row,IC50,Structure (SMILES)
1,0.01 to 0.1 µM,"CNC(=O)C(C(=O)NO)N(C)C(=O)c1ccc(-c2ccc(CCCN3CCCOCC3)cc2)cc1 (stereo not shown) [Compound 502, N-hydroxy-N′-methyl-2-[methyl({4′-[3-(1,4-oxazepan-4-yl)propyl]biphenyl-4-yl}carbonyl)amino]propanediamide]"
2,< 0.01 µM,"CCOC1CN(Cc2cc(C#Cc3ccc(C(=O)N(C)[C@@](C)(C(=O)NC)C(=O)NO)cc3)co2)C1 [Compound 584, (2S)-2-[{[4-({5-[(3-ethoxyazetidin-1-yl)methyl]furan-3-yl}ethynyl)phenyl]carbonyl}(methyl)amino]-N-hydroxy-N′,2-dimethylpropanediamide]"

# Same assay, conditions: inhibitory activity on Pseudomonas aeruginosa LpxC enzyme, class symbols A/B/C; read-out: Enzyme inhibitory activity
row,Structure (SMILES),IC50
1,"CNC(=O)C(C(=O)NO)N(C)C(=O)c1ccc(-c2ccc(NCCOC)c(F)c2)cc1 (stereo not shown) [Compound 66, 2-[({3′-fluoro-4′-[(2-methoxyethyl)amino]biphenyl-4-yl}carbonyl)(methyl)amino]-N-hydroxy-N′-methylpropanediamide]",< 0.01 µM
2,"CNC(=O)C(C(=O)NO)N(C)C(=O)c1ccc(-c2ccc(NCCCNc3ccccc3)cc2)cc1 (stereo not shown) [Compound 100, N-hydroxy-N′-methyl-2-{methyl[(4′-{[3-(phenylamino)propyl]amino}biphenyl-4-yl)carbonyl]amino}propanediamide]",< 0.01 µM
3,"CNC(=O)C(C(=O)NO)N(C)C(=O)c1ccc(-c2nc3ccccc3s2)cc1 (stereo not shown) [Compound 344, 2-[{[4-(1,3-benzothiazol-2-yl)phenyl]carbonyl}(methyl)amino]-N-hydroxy-N′-methylpropanediamide]",0.01 to 0.1 µM
4,"CNC(=O)C(C(=O)NO)N(C)C(=O)c1ccc(C#Cc2ccc(CN3CCC(OC)CC3)cc2)cc1 (stereo not shown) [Compound 383, N-hydroxy-2-[{[4-({4-[(4-methoxypiperidin-1-yl)methyl]phenyl}ethynyl)phenyl]carbonyl}(methyl)amino]-N′-methylpropanediamide]",< 0.01 µM
5,"CNC(=O)C(C(=O)NO)N(C)C(=O)c1ccc(-c2cnco2)cc1 (stereo not shown) [Compound 310, N-hydroxy-N′-methyl-2-(methyl {[4-(1,3-oxazol-5-yl)phenyl]carbonyl}amino)propanediamide]",> 0.1 µM
6,"COCCNC(=O)C(NC(=O)c1ccc(-c2ccc(OCCO)cc2)cc1)C(=O)NO (stereo not shown) [Compound 131, N-hydroxy-2-({[4′-(2-hydroxyethoxy)biphenyl-4-yl]carbonyl}amino)-N′-(2-methoxyethyl)propanediamide]",0.01 to 0.1 µM
7,"CNC(=O)C(C(=O)NO)N(C)C(=O)c1ccc(OC(F)(F)C(F)F)cc1 (stereo not shown) [Compound 47, N-hydroxy-N′-methyl-2-{methyl[4-(1,1,2,2-tetrafluoroethoxy)benzoyl]amino}propanediamide]",> 0.1 µM
8,"CNC(=O)C(C(=O)NO)N(C)C(=O)c1ccc(-c2ccc(C(=O)N(C)C)cc2)cc1 (stereo not shown) [Compound 252, N-[1-(hydroxyamino)-3-(methylamino)-1,3-dioxopropan-2-yl]-N,N′,N′-trimethylbiphenyl-4,4′-dicarboxamide]",0.01 to 0.1 µM
9,"Cn1ccnc1CNC(=O)C(NC(=O)c1ccc(-c2ccc(OCCO)cc2)cc1)C(=O)NO (stereo not shown) [Compound 156, N-hydroxy-2-({[4′-(2-hydroxyethoxy)biphenyl-4-yl]carbonyl}amino)-N′-[(1-methyl-1H-imidazol-2-yl)methyl]propanediamide]",< 0.01 µM
10,"CNC(=O)C(C(=O)NO)N(C)C(=O)c1ccc(C#Cc2ccc(CN(CCO)CCO)cc2)cc1 (stereo not shown) [Compound 315, 2-[({4-[(4-{[bis(2-hydroxyethyl)amino]methyl}phenyl)ethynyl]phenyl}carbonyl)(methyl)amino]-N-hydroxy-N′-methylpropanediamide]",< 0.01 µM
11,"Cn1cnc(CNC(=O)C(NC(=O)c2ccc(-c3ccc(OCCO)cc3)cc2)C(=O)NO)c1 (stereo not shown) [Compound 158, N-hydroxy-2-({[4′-(2-hydroxyethoxy)biphenyl-4-yl]carbonyl}amino)-N′-[(1-methyl-1H-imidazol-4-yl)methyl]propanediamide]",< 0.01 µM
12,"CNC(=O)C(C(=O)NO)N(C)C(=O)c1ccc(C#Cc2ccc(CCN3CCOCC3)cc2)cc1 (stereo not shown) [Compound 206, N-hydroxy-N′-methyl-2-{methyl[4-({4-[2-(morpholin-4-yl)ethyl]phenyl}ethynyl)benzoyl]amino}propanediamide]",< 0.01 µM
13,"CNC(=O)C(C(=O)NO)N(C)C(=O)c1ccc(C#Cc2ccn(C)c2)cc1 (stereo not shown) [Compound 424, N-hydroxy-N′-methyl-2-[methyl({4-[(1-methyl-1H-pyrrol-3-yl)ethynyl]phenyl}carbonyl)amino]propanediamide]",0.01 to 0.1 µM
14,"CNC(=O)C(C(=O)NO)N(C)C(=O)c1ccc(C#Cc2ccc(CN3CC(C)(O)C3)cc2)cc1 (stereo not shown) [Compound 321, N-hydroxy-2-[{[4-({4-[(3-hydroxy-3-methylazetidin-1-yl)methyl]phenyl}ethynyl)phenyl]carbonyl}(methyl)amino]-N′-methylpropanediamide]",< 0.01 µM
15,"CCCCc1ccc(C(=O)N(C)C(C(=O)NC)C(=O)NO)cc1 (stereo not shown) [Compound 37, 2-[(4-butylbenzoyl)(methyl)amino]-N-hydroxy-N′-methylpropanediamide]",0.01 to 0.1 µM

# Second part, the compound after the results:
row,IC50,Structure (SMILES)
1,< 0.01 µM,"CNC(=O)C(C(=O)NO)N(C)C(=O)c1ccc(-c2ccccc2F)c(F)c1 (stereo not shown) [Compound 73, 2-{[(2,2′-difluorobiphenyl-4-yl)carbonyl](methyl)amino}-N-hydroxy-N′-methylpropanediamide]"
2,< 0.01 µM,"O=C(NC(C(=O)NO)C(=O)NCc1ccco1)c1ccc(-c2ccc(OCCO)cc2)cc1 (stereo not shown) [Compound 12, N-(furan-2-ylmethyl)-N′-hydroxy-2-({[4′-(2-hydroxyethoxy)biphenyl-4-yl]carbonyl}amino)propanediamide]"
3,> 0.1 µM,"CN(C)C(=O)C(NC(=O)c1ccc(-c2ccc(OCCO)cc2)cc1)C(=O)NO (stereo not shown) [Compound 118, N′-hydroxy-2-({[4′-(2-hydroxyethoxy)biphenyl-4-yl]carbonyl}amino)-N,N-dimethylpropanediamide]"
4,0.01 to 0.1 µM,"O=C(NC(C(=O)NO)C(=O)Nc1cccnc1)c1ccc(-c2ccc(OCCO)cc2)cc1 (stereo not shown) [Compound 116, N-hydroxy-2-({[4′-(2-hydroxyethoxy)biphenyl-4-yl]carbonyl}amino)-N′-(pyridin-3-yl)propanediamide]"
5,0.01 to 0.1 µM,"CNC(=O)C(C(=O)NO)N(C(=O)c1ccc(-c2ccc(OCCO)cc2)cc1)C1CC1 (stereo not shown) [Compound 154, 2-(cyclopropyl {[4′-(2-hydroxyethoxy)biphenyl-4-yl]carbonyl}amino)-N-hydroxy-N′-methylpropanediamide]"
6,> 0.1 µM,"CNC(=O)C(C(=O)NO)N(C)C(=O)c1ccc(C#Cc2ccccc2)cn1 (stereo not shown) [Compound 455, N-hydroxy-N′-methyl-2-(methyl {[5-(phenylethynyl)pyridin-2-yl]carbonyl}amino)propanediamide]"
7,> 0.1 µM,"CCCNC(=O)C(C(=O)NO)N(C)C(=O)c1ccc(-c2ccccc2)cc1 (stereo not shown) [Compound 171, 2-[(biphenyl-4-ylcarbonyl)(methyl)amino]-N-hydroxy-N′-propylpropanediamide]"
8,0.01 to 0.1 µM,"CNC(=O)C(C(=O)NO)N(C)C(=O)c1ccc(C#Cc2ccc(C(F)(F)F)cc2)cc1 (stereo not shown) [Compound 420, N-hydroxy-N′-methyl-2-{methyl[(4-{[4-(trifluoromethyl)phenyl]ethynyl}phenyl)carbonyl]amino}propanediamide]"
9,< 0.01 µM,"CNC(=O)C(C(=O)NO)N(C)C(=O)c1ccc(-c2ccc(/N=C/NO)cc2)cc1 (stereo not shown) [Compound 272, N-hydroxy-2-{[(4′-{[(E)-(hydroxyamino)methylidene]amino}biphenyl-4-yl)carbonyl](methyl)amino}-N′-methylpropanediamide]"
10,0.01 to 0.1 µM,"CNC(=O)C(C(=O)NO)N(C)C(=O)c1ccc(-c2ccc(C3(C)OCCO3)cc2)cc1 (stereo not shown) [Compound 254, N-hydroxy-N′-methyl-2-(methyl {[4′-(2-methyl-1,3-dioxolan-2-yl)biphenyl-4-yl]carbonyl}amino)propanediamide]"
11,< 0.01 µM,"CNC(=O)C(C(=O)NO)N(C)C(=O)c1ccc(-c2ccc(NCc3cccnc3)cc2)cc1 (stereo not shown) [Compound 65, N-hydroxy-N′-methyl-2-[methyl({4′-[(pyridin-3-ylmethyl)amino]biphenyl-4-yl}carbonyl)amino]propanediamide]"
12,< 0.01 µM,"CNC(=O)C(NC(=O)c1ccc(-c2ccc(OCCO)cc2)cc1)C(=O)NO (stereo not shown) [Compound 113, N-hydroxy-2-({[4′-(2-hydroxyethoxy)biphenyl-4-yl]carbonyl}amino)-N′-methylpropanediamide]"
13,0.01 to 0.1 µM,"CNC(=O)C(C(=O)NO)N(C)C(=O)c1ccc(-c2ccc(CCC(=O)N(C)C)cc2)cc1 (stereo not shown) [Compound 266, 2-[({4′-[3-(dimethylamino)-3-oxopropyl]biphenyl-4-yl}carbonyl)(methyl)amino]-N-hydroxy-N′-methylpropanediamide]"
14,0.01 to 0.1 µM,"O=C(NC(C(=O)NO)C(=O)NC1CC1)c1ccc(-c2ccc(OCCO)cc2)cc1 (stereo not shown) [Compound 121, N-cyclopropyl-N′-hydroxy-2-({[4′-(2-hydroxyethoxy)biphenyl-4-yl]carbonyl}amino)propanediamide]"
